Results taken from publication PMC5862567, “Validating and enabling phosphoglycerate dehydrogenase (PHGDH) as a target for fragment-based drug discovery in PHGDH-amplified breast cancer” (Oncotarget, 2016).
Values joined by “and” are separate entries in the source; they are usually repeats but may differ in a detail not shown here. Identical values can stand only once. “Also recorded” adds a separate entry of the source. Like-named read-outs stand apart in the source and are kept apart here.

What was measured:
[1] = target: T1, recombinant full-length PHGDH (Homo sapiens, UniProt O43175); test: Differential scanning fluorimetry (DSF) thermal shift assay, fragment screen; assay type: binding; parameters: key to Z score: Z-score of Tm shift, in standard deviations from the screen mean; settings: for Z score: average Z score of primary fragment screens by DSF; for ΔTm at 1000 µM: fragment 1 mM, primary DSF screen, 15 μM PHGDH, read-out: ΔTm (screening hit); for ΔTm (repurchased fragment): DSF
T1 construct: encoding for the full-length enzyme (aa 1-533); His6 (N, cleaved yes); TEV protease recognition site (N, cleaved yes); made in house; host or cells: E. coli Rosetta (DE3)
T1 sequence (O43175 1-533): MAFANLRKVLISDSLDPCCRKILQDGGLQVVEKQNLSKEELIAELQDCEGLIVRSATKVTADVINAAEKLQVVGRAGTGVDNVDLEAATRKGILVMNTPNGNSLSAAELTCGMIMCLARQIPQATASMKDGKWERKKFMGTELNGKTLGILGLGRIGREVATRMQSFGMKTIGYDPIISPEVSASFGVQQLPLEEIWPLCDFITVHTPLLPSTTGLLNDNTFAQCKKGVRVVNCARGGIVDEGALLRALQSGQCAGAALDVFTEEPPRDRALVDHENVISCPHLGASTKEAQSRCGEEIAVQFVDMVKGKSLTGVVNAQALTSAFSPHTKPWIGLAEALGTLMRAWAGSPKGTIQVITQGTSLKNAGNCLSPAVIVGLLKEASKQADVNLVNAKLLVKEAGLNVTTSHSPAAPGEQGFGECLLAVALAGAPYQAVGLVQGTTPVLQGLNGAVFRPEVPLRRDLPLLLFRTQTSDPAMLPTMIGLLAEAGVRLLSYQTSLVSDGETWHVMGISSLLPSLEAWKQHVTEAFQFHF
Protocol: In this study a ‘rule-of-three’ [18] compliant library of 600 fragments (CRT Cambridge, UK) was screened against recombinant full-length PHGDH using a differential scanning fluorimetry (DSF) assay. PHGDH has an average melting temperature (Tm) of 54 °C. Fragments were screened at 1 mM in the presence of 1 % DMSO. 1 mM NADH was used as positive control, and gave an increased Tm of 61 °C, corresponding to a Δ Tm of 7 °C (Supplementary Figure S2). Hits were determined based on an average Z-score ≥ 1, i.e. to a change in Tm of PHGDH equal to or greater than one standard deviation of the mean (Supplementary Table S1). Applying this threshold, 42 compounds were classified as hits, which corresponds to a hit rate of […]. A subset of 15 fragments was commercially available and were repurchased and further evaluated in an ITC competition experiment (Figure 3, Table 1, Supplementary Figure S3). The ITC competition experiments confirmed binding of 13 fragments to the cofactor-binding pocket of PHGDH. […] In order to further characterise the hits, and to help us prioritise their use as seeds for further hit-expansion studies, we undertook a crystallographic investigation of their respective binding modes.
The DSF assay was performed in 384-well plates (Corning, black) in 25 mM HEPES, pH 7.5, 100 mM NaCl, 0.5 mM TCEP, 10 x SYPRO® Orange (Thermo Fisher Scientific), in a final volume of 15 μL containing 15 μM PHGDH and […]. The fragments were added from a 100 mM master stock in 100 % DMSO to a final concentration of 1 mM using an ECHO® acoustic liquid handler (Labcyte). Reference wells contained DMSO only and 1 mM NADH was used as positive control.
The heat denaturation profile of PHGDH was followed using the fluorescence of Sypro Orange with excitation and emission wavelengths of 470 and 570 nm, respectively. Analysis was performed in GraphPad Prism using the Boltzmann equation to determine the melting temperature, Tm, which is the inflection point of the sigmoidal denaturation curve.

[2] = target: T2, sPHGDH (aa 3-314), cofactor-binding pocket (Homo sapiens, UniProt O43175); test: ITC competition experiment (NADH titrated into sPHGDH premixed with fragment); settings: for Kd / ΔH / ΔS: competition ITC, 5 mM fragment, 25 °C; for Kd: 0.5 mM NADH into 0.05 mM sPHGDH, 5 % DMSO; for LE: ΔG per number of non-hydrogen atoms (= #)
T2 construct: the truncated version (sPHGDH, aa 3-314); His6 (N, cleaved yes); TEV protease recognition site (N, cleaved yes); made in house; host or cells: E. coli Rosetta (DE3)
T2 sequence (O43175 3-314): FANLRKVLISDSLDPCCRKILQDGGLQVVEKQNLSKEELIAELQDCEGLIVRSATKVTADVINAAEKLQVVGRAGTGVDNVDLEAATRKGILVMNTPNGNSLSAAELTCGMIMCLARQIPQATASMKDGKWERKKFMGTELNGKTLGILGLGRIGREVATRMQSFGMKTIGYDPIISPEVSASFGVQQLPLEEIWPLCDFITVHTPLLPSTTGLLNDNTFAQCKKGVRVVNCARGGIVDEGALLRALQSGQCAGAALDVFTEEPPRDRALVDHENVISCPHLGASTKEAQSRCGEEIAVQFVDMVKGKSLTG
Protocol: To remove residual bound cofactor, sPHGDH was incubated with 0.5 equivalents of activated charcoal for 30 minutes at room temperature prior to performing the ITC experiments. […] 1 x 0.5 μL, followed by 17 x 2 μL injections of ligands into protein with 120 seconds spacing between the injections was conducted. Titration of 0.5 mM NADH in 5 % DMSO into 0.05 mM sPHGDH in 5 % DMSO was used as reference.

PHGDH = settings: cited from earlier work

## CCc1nc(C)c[nH]1 [Fragment 2, 2-Ethyl-4-methylimidazole]
[1]
  Z score: 1.0 ± 1.0
  ΔTm at 1000 µM: 2 ± 2.1 °C
  ΔTm (repurchased fragment): -0.1 ± 0.2 °C
[2]
  Kd: No competition

## Oc1ncnc2cccc(F)c12 [Fragment 4, 5-Fluoro-4-hydroxy quinazoline]
[1]
  Z score: 1.0 ± 0.8
  ΔTm at 1000 µM: 2.4 ± 1.1 °C
  ΔTm (repurchased fragment): 0.2 ± 0.3 °C
[2]; read-out: Kd
  Kd: 12.8 ± 2.7 mM
[2]
  ΔH: 1.98 kcal/mol
  ΔS: -0.01 kJ (mol x K)
  LE: 0.21 kcal/(mol·heavy atom)

## Cn1nc(-c2ccccc2)cc1N [Fragment 3, 1-Methyl-3-phenyl-1H-pyrazol-5-amine]
[1]
  Z score: 1.0 ± 0.4
  ΔTm at 1000 µM: 2.2 ± 0.8 °C
  ΔTm (repurchased fragment): -0.2 ± 0.2 °C
[2]; read-out: Kd
  Kd: 5.8 ± 2 mM
[2]
  ΔH: -111.7 kcal/mol
  ΔS: -1.61 kJ (mol x K)
  LE: 0.23 kcal/(mol·heavy atom)

## NC(=O)C1=CN([C@@H]2O[C@H](COP(=O)(O)OP(=O)(O)OC[C@H]3O[C@@H](n4cnc5c(N)ncnc54)[C@H](O)[C@@H]3O)[C@@H](O)[C@H]2O)C=CC1 [NADH, reference compound]
[1]; 1 mM NADH positive control
  ΔTm: 7 °C
[1]; 1 mM NADH positive control, PHGDH alone Tm 54 °C
  Tm of PHGDH in presence of compound: 61 °C

## c1ccc(Cn2ccnc2)cc1 [Fragment 12, 1-Benzylimidazole]
[1]
  Z score: 1.1 ± 0.2
  ΔTm at 1000 µM: 1.3 ± 0.9 °C
  ΔTm (repurchased fragment): -0.6 ± 0.4 °C
[2]; read-out: Kd
  Kd: 11.8 ± 9.6 mM
[2]
  ΔH: -15.4 kcal/mol
  ΔS: -0.25 kJ (mol x K)
  LE: 0.22 kcal/(mol·heavy atom)

## Oc1noc2ccc(F)cc12 [Fragment 19, 5-fluoro-3-hydroxybenzisoxazole]
[2]; read-out: Kd
  Kd: 15.4 ± 10.2 mM
[2]
  ΔH: -45.43 kcal/mol
  ΔS: -0.67 kJ (mol x K)
  LE: 0.22 kcal/(mol·heavy atom)
[2]; competitive ITC Kd, versus 17
  fold weaker binding affinity compared to 17: 6 fold

## CCOC(=O)c1sc(NC(=O)c2ccco2)c(SC#N)c1C [CBR-5884]
PHGDH
  mode of PHGDH inhibition: non-competitive

## Cn1ccc2cc(N)ccc21 [Fragment 9, 5-Amino-1-methyl-1H-indole]
[1]
  Z score: 1.8 ± 1.4
  ΔTm at 1000 µM: 2 ± 1.2 °C
  ΔTm (repurchased fragment): 1.2 ± 0.4 °C
[2]; read-out: Kd
  Kd: 11.1 ± 5 mM
[2]
  ΔH: -24.38 kcal/mol
  ΔS: -0.38 kJ (mol x K)
  LE: 0.24 kcal/(mol·heavy atom)

## NC(=O)c1ccc(F)c(Cl)c1 [Fragment 5, 3-Chloro-4-fluorobenzamide]
[1]
  Z score: 1.0 ± 0.8
  ΔTm at 1000 µM: 2.3 ± 1 °C
  ΔTm (repurchased fragment): -0.1 ± 0.2 °C
[2]; read-out: Kd
  Kd: 1.6 ± 0.2 mM
[2]
  ΔH: -1.29 kcal/mol
  ΔS: -0.07 kJ (mol x K)
  LE: 0.35 kcal/(mol·heavy atom)

## Oc1noc2ccc(Br)cc12 [Fragment 20]
[2]
  Kd: no binding affinity was detected; also recorded: Compound precipitated

## Cc1cccc2cc[nH]c12 [Fragment 6, 7-Methyl-1H-indole]
[1]
  Z score: 1.1 ± 0.7
  ΔTm at 1000 µM: 2.4 ± 1.2 °C
  ΔTm (repurchased fragment): 0.2 ± 0.2 °C
[2]; read-out: Kd
  Kd: 1.5 ± 0.2 mM
[2]
  ΔH: -380.95 kcal/mol
  ΔS: -5.40 kJ (mol x K)
  LE: 0.38 kcal/(mol·heavy atom)

## Cc1cncc(Oc2cccc(CO)c2)n1 [Fragment 7, [3-(6-Methylpyrazin-2-yl)oxyphenyl] methanol]
[1]
  Z score: 1.2 ± 0.9
  ΔTm at 1000 µM: 1.8 ± 1.7 °C
  ΔTm (repurchased fragment): -0.3 ± 0.2 °C
[2]; read-out: Kd
  Kd: 16.6 ± 10.4 mM
[2]
  ΔH: 3.78 kcal/mol
  ΔS: 0.02 kJ (mol x K)
  LE: 0.15 kcal/(mol·heavy atom)

## Cc1cccc2c(O)noc12 [Fragment 18]
[2]; read-out: Kd
  Kd: 15.9 ± 7.4 mM
[2]
  ΔH: -46.44 kcal/mol
  ΔS: -0.67 kJ (mol x K)
  LE: 0.22 kcal/(mol·heavy atom)
[2]; competitive ITC Kd, versus 16
  fold reduced affinity compared to fragment 16: 2.5 fold

## Oc1noc2cc(Cl)ccc12 [Fragment 17, 6-chloro-3-hydroxybenzisoxazole]
[2]; read-out: Kd
  Kd: 2.4 ± 0.7 mM
[2]
  ΔH: -362.64 kcal/mol
  ΔS: -5.14 kJ (mol x K)
  LE: 0.32 kcal/(mol·heavy atom)

## Oc1ccnc(O)c1 [Fragment 13, 2,4.Dihydroxy pyridine]
[1]
  Z score: 1.4 ± 0.2
  ΔTm at 1000 µM: 0.8 ± 0.1 °C
  ΔTm (repurchased fragment): 0.3 ± 0.1 °C
[2]
  Kd: No competition

## Oc1noc2ccccc12 [Fragment 16, 3-Hydroxy benzisoxazole]
[1]
  Z score: 1.4 ± 0.7
  ΔTm at 1000 µM: 2.5 ± 0.7 °C
  ΔTm (repurchased fragment): 0.2 ± 0.3 °C
[2]; read-out: Kd
  Kd: 6.5 ± 4.7 mM
[2]
  ΔH: -91.44 kcal/mol
  ΔS: -1.33 kJ (mol x K)
  LE: 0.3 kcal/(mol·heavy atom)

## Cc1ccc(F)cc1C(=O)O [Fragment 14, 5-Fluoro-2-methylbenzoic acid]
[1]
  Z score: 1.1 ± 0.2
  ΔTm at 1000 µM: 1.4 ± 0.5 °C
  ΔTm (repurchased fragment): 0.4 ± 0.3 °C
[2]; read-out: Kd
  Kd: 26 mM and 26.2 mM
[2]
  ΔH: -11.2 kcal/mol
  ΔS: -0.19 kJ (mol x K)
  LE: 0.2 kcal/(mol·heavy atom)

## O=C1COc2cc(O)ccc21 [Fragment 8, 6-Hydroxy-2,3-dihydrobenzo[b] furan-3-one]
[1]
  Z score: 1.5 ± 0.4
  ΔTm at 1000 µM: 1.7 ± 0.6 °C
  ΔTm (repurchased fragment): 0.4 ± 0.4 °C
[2]; read-out: Kd
  Kd: 5.9 ± 1.5 mM
[2]
  ΔH: -69.96 kcal/mol
  ΔS: -1.02 kJ (mol x K)
  LE: 0.28 kcal/(mol·heavy atom)

## Cc1cncc(Oc2cccc(N)c2)n1 [Fragment 11, 3-(6-Methylpyrazin-2-yl)oxyaniline]
[1]
  Z score: 1.1 ± 0.6
  ΔTm at 1000 µM: 1.7 ± 0.7 °C
  ΔTm (repurchased fragment): -0.6 ± 0.6 °C
[2]; read-out: Kd
  Kd: 11.5 ± 8.4 mM
[2]
  ΔH: -2.75 kcal/mol
  ΔS: -0.08 kJ (mol x K)
  LE: 0.18 kcal/(mol·heavy atom)

## Nc1cccc(-c2cnco2)c1 [Fragment 10, 3-(1,3-oxazol-5-yl)aniline]
[1]
  Z score: 1.0 ± 0.9
  ΔTm at 1000 µM: 1.4 ± 0.6 °C
  ΔTm (repurchased fragment): -0.8 ± 0.3 °C
[2]
  ΔH: -62.33 kcal/mol
  ΔS: -0.91 kJ (mol x K)

## COc1ccc(NC(C)=O)cc1Cl [Fragment 15, N-(3-chloro-4-methoxyphenyl) acetamide]
[1]
  Z score: 1.2 ± 0.3
  ΔTm at 1000 µM: 1.3 ± 0.2 °C
  ΔTm (repurchased fragment): -0.2 ± 0.4 °C
[2]; read-out: Kd
  Kd: 2.8 ± 1.6 mM
[2]
  ΔH: -419.02 kcal/mol
  ΔS: -5.93 kJ (mol x K)
  LE: 0.27 kcal/(mol·heavy atom)
